Data: ChEMBL document CHEMBL3425422, “Discovery of a potent microtubule-targeting agent: Synthesis and biological evaluation of water-soluble amino acid prodrug of combretastatin A-4 derivatives” (Bioorg Med Chem Lett, 2015)
Active and inactive are the calls of the source. No cut-off for these calls is given here.

Experiments:
NCI-H460 = assay: Antitumor activity against human H460 cells xenografted in BALB/C mouse assessed as mouse survival at 20 mg/kg, ip qd relative to control; assay type: functional, organism-based; parameters: dose 20 mg/kg
HepG2 [1] = assay: Cytotoxicity against human HepG2 cells assessed as cell viability after 48 hrs by MTT assay; assay type: functional, cell-based; conditions: HepG2, 48 h
[2] = Aqueous solubility of the compound; assay type: physicochemical; conditions: water (aqueous)
[3] = Antitumor activity against human H460 cells xenografted in BALB/C mouse assessed as inhibition ratio at 20 mg/kg, ip qd relative to control; assay type: functional; conditions: NCI-H460, ip, route intraperitoneal
[4] = Cytotoxicity against human H460 cells assessed as cell viability after 48 hrs by MTT assay; assay type: functional, cell-based; conditions: NCI-H460, 48 h
Serum [5] = assay: Stability of the compound in Wistar rat serum assessed as prodrug degradation after 24 hrs; assay type: ADME, cell-free
[6] = Cytotoxicity against human SKOV3 cells assessed as cell viability after 48 hrs by MTT assay; assay type: functional, cell-based; conditions: SK-OV-3, 48 h
Serum [7] = assay: Stability of the compound in Wistar rat serum assessed as prodrug degradation after 6 hrs; assay type: ADME, cell-free
SK-OV-3 [8] = assay: Antitumor activity against human SKOV3 cells xenografted in BALB/C mouse assessed as mouse survival at 10 mg/kg, iv qd relative to control; assay type: functional, organism-based; parameters: dose 10 mg/kg
[9] = Antitumor activity against human SKOV3 cells xenografted in BALB/C mouse assessed as inhibition ratio at 10 mg/kg, iv qd relative to control; assay type: functional; conditions: SK-OV-3
SK-OV-3 [10] = assay: Induction of apoptosis in human SKOV3 cells assessed as decrease in pro-caspase-9 protein level at 100 to 1000 nM after 48 hrs by Western blot analysis; assay type: functional, cell-based
SK-OV-3 [11] = assay: Induction of cell cycle arrest in human SKOV3 cells assessed as accumulation at G2 phase at 500 nM after 24 hrs by FCM analysis (reference value: 15.07%); assay type: functional
SK-OV-3 [12] = assay: Induction of cell cycle arrest in human SKOV3 cells assessed as accumulation at S phase at 500 nM after 24 hrs by FCM analysis (reference value: 24.09%); assay type: functional
SK-OV-3 [13] = assay: Induction of cell cycle arrest in human SKOV3 cells assessed as accumulation at G2 phase at 50 nM after 24 hrs by FCM analysis (reference value: 15.07%); assay type: functional
SK-OV-3 [14] = assay: Induction of cell cycle arrest in human SKOV3 cells assessed as accumulation at G1 phase at 500 nM after 24 hrs by FCM analysis (reference value: 60.84%); assay type: functional
SK-OV-3 [15] = assay: Antimitotic effect in human SKOV3 cells assessed as decrease in p-cdc2 level by Western blot analysis; assay type: functional, cell-based
SK-OV-3 [16] = assay: Induction of cell cycle arrest in human SKOV3 cells assessed as accumulation at G2/M phase at 500 nM after 24 hrs by FCM analysis (reference value: 15.30%); assay type: functional
SK-OV-3 [17] = assay: Induction of cell cycle arrest in human SKOV3 cells assessed as accumulation at G1 phase at 50 nM after 24 hrs by FCM analysis (reference value: 60.84%); assay type: functional
SK-OV-3 [18] = assay: Induction of apoptosis in human SKOV3 cells assessed as decrease in Bcl-2/Bax ratio at 100 to 1000 nM after 48 hrs by Western blot analysis; assay type: functional, cell-based
SK-OV-3 [19] = assay: Induction of cell cycle arrest in human SKOV3 cells assessed as accumulation at G2/M phase after 24 hrs by FCM analysis; assay type: functional, cell-based
HepG2 [20] = assay: Disruption of microtubule organization in human HepG2 cells at 100 nM after 12 hrs by DAPI staining-based fluorescence microscopy; assay type: functional, cell-based
Tubulin (Homo sapiens) [21] = target: T1, Tubulin (Homo sapiens) (UniProt P68371+Q9H4B7+P0DPH7+P68366+Q13509+Q71U36+P04350+Q3ZCM7+P07437+P68363+Q9BQE3+Q6PEY2+Q13885+Q9BVA1+Q9BUF5); assay: Inhibition of tubulin polymerization (unknown origin) at 5 to 10 uM by cell-free tubulin polymerization assay; assay type: protein-complex assay
SK-OV-3 [22] = assay: Induction of MAPK phosphorylation in human SKOV3 cells at 500 nM after 24 hrs by Western blot analysis; assay type: functional, cell-based
SK-OV-3 [23] = assay: Induction of cell cycle arrest in human SKOV3 cells assessed as accumulation at G2/M phase at 100 nM after 24 hrs by FCM analysis (reference value: 15.30%); assay type: functional
Tubulin (Homo sapiens) [24] = target: T1, Tubulin (Homo sapiens); assay: Displacement of colchicine from tubulin (unknown origin) after 1 hr by fluorescence based competitive tubulin-binding assay; assay type: protein-complex assay
SK-OV-3 [25] = assay: Antimitotic effect in human SKOV3 cells assessed as decrease in cdc2 level by Western blot analysis; assay type: functional, cell-based
SK-OV-3 [26] = assay: Induction of apoptosis in human SKOV3 cells assessed as decrease in pro-caspase-3 protein level at 100 to 1000 nM after 48 hrs by Western blot analysis; assay type: functional, cell-based
HepG2 [27] = assay: Disruption of microtubule organization in human HepG2 cells at 500 nM after 12 hrs by DAPI staining-based fluorescence microscopy; assay type: functional, cell-based
SK-OV-3 [28] = assay: Induction of cell cycle arrest in human SKOV3 cells assessed as accumulation at G2 phase at 100 nM after 24 hrs by FCM analysis (reference value: 15.07%); assay type: functional
SK-OV-3 [29] = assay: Induction of cell cycle arrest in human SKOV3 cells assessed as accumulation at S phase at 50 nM after 24 hrs by FCM analysis (reference value: 24.09%); assay type: functional
SK-OV-3 [30] = assay: Antimitotic effect in human SKOV3 cells assessed as increase in cyclin B level by Western blot analysis; assay type: functional, cell-based
Tubulin (Homo sapiens) [31] = target: T1, Tubulin (Homo sapiens); assay: Inhibition of tubulin polymerization in human SKOV3 cells assessed as increase in polymerized (insoluble) tubulin level at 0.1 to 1 uM after 24 hrs by Western blot analysis; assay type: cell-based; conditions: SK-OV-3
Rattus norvegicus = assay: Prodrug conversion in rat assessed as 4-(4-ethoxyphenyl)-5-(3,4,5-trimethoxyphenyl)thiazol-2-amine in plasma measured as half life at 10 mg/kg, iv; assay type: ADME, organism-based; parameters: dose 10 mg/kg, route intravenous; conditions: in vivo
SK-OV-3 [32] = assay: Induction of cell cycle arrest in human SKOV3 cells assessed as accumulation at S phase at 100 nM after 24 hrs by FCM analysis (reference value: 24.09%); assay type: functional
SK-OV-3 [33] = assay: Induction of cell cycle arrest in human SKOV3 cells assessed as accumulation at G1 phase at 100 nM after 24 hrs by FCM analysis (reference value: 60.84%); assay type: functional
Tubulin (Homo sapiens) [34] = target: T1, Tubulin (Homo sapiens); assay: Inhibition of tubulin polymerization (unknown origin) at 5 uM by cell-free tubulin polymerization assay; assay type: protein-complex assay
SK-OV-3 [35] = assay: Antimitotic effect in human SKOV3 cells assessed as decrease in cdc25 level by Western blot analysis; assay type: functional, cell-based
Tubulin (Homo sapiens) [36] = target: T1, Tubulin (Homo sapiens); assay: Inhibition of tubulin polymerization in human SKOV3 cells assessed as increase in depolymerized (soluble) tubulin level at 0.1 to 1 uM after 24 hrs by Western blot analysis; assay type: cell-based; conditions: SK-OV-3
SK-OV-3 [37] = assay: Induction of apoptosis in human SKOV3 cells assessed as PARP cleavage at 100 to 1000 nM after 48 hrs by Western blot analysis; assay type: functional, cell-based

## CCOc1ccc(-c2nc(NC(=O)C(N)COCc3ccccc3)sc2-c2cc(OC)c(OC)c(OC)c2)cc1.Cl (centres undefined)
NCI-H460
  Activity: Active
HepG2 [1]
  IC50: 470 nM
[2]
  solubility: 259 µM
[3]
  inhibition in vivo at 20 mg/kg: 44.8%
[4]
  IC50: > 2000 nM
Serum [5]
  Drug degradation: 42.56%
[6]
  IC50: 300 nM
Serum [7]
  Drug degradation: 39.46%

## CCOc1ccc(-c2nc(NC(=O)[C@H](N)CC(C)C)sc2-c2cc(OC)c(OC)c(OC)c2)cc1.Cl
NCI-H460
  Activity: Active
HepG2 [1]
  IC50: 140 nM
[2]
  solubility: 554 µM
SK-OV-3 [8]
  Activity: Active
[3]
  inhibition in vivo at 20 mg/kg: 52.6%
[4]
  IC50: 190 nM
Serum [5]
  Drug degradation: 91.1%
[6]
  IC50: 90 nM
Serum [7]
  Drug degradation: 70.78%
[9]
  inhibition in vivo at 10 mg/kg: 33.1%

## CCOc1ccc(-c2nc(N)sc2-c2cc(OC)c(OC)c(OC)c2)cc1
HepG2 [1]
  IC50: 210 nM
[2]
  solubility: < 100 µM
[4]
  IC50: 200 nM
[6]
  IC50: 10 nM

## CCOc1ccc(-c2nc(NC(=O)[C@@H]3CCCN3)sc2-c2cc(OC)c(OC)c(OC)c2)cc1.Cl
NCI-H460
  Activity: Active
HepG2 [1]
  IC50: 110 nM
[2]
  solubility: 458 µM
[3]
  inhibition in vivo at 20 mg/kg: 39.4%
[4]
  IC50: > 2000 nM
Serum [5]
  Drug degradation: 16.55%
[6]
  IC50: 80 nM
Serum [7]
  Drug degradation: 12.54%

## CCOc1ccc(-c2nc(NC(=O)[C@H](N)Cc3ccccc3)sc2-c2cc(OC)c(OC)c(OC)c2)cc1
HepG2 [1]
  IC50: 600 nM
[4]
  IC50: > 2000 nM
[6]
  IC50: > 2000 nM

## CCOc1ccc(-c2nc(NC(=O)[C@@H](N)C(C)C)sc2-c2cc(OC)c(OC)c(OC)c2)cc1.Cl
SK-OV-3 [10]
  Activity: Active
NCI-H460
  Activity: Active
SK-OV-3 [11]
  Activity: 94.51%
SK-OV-3 [12]
  Activity: 3.97%
HepG2 [1]
  IC50: 390 nM
SK-OV-3 [13]
  Activity: 10.22%
SK-OV-3 [14]
  Activity: 1.22%
SK-OV-3 [15]
  inhibition: Active
SK-OV-3 [16]
  Activity: 93.1%
SK-OV-3 [17]
  Activity: 55.67%
[2]
  solubility: > 10000 µM
SK-OV-3 [18]
  Activity: Active
SK-OV-3 [8]
  Activity: Active
[3]
  inhibition in vivo at 20 mg/kg: 55%
SK-OV-3 [19]
  Activity: Dose-dependent effect
HepG2 [20]
  Activity: Active
Tubulin (Homo sapiens) [21]
  inhibition: Active
[4]
  IC50: 200 nM
SK-OV-3 [22]
  Activity: Active
SK-OV-3 [23]
  Activity: 41.4%
Serum [5]
  Drug degradation: 38.23%
Tubulin (Homo sapiens) [24]
  inhibition: Dose-dependent effect
SK-OV-3 [25]
  inhibition: Active
[6]
  IC50: 420 nM
Serum [7]
  Drug degradation: 12.77%
SK-OV-3 [26]
  Activity: Active
HepG2 [27]
  Activity: Active
SK-OV-3 [28]
  Activity: 40.71%
SK-OV-3 [29]
  Activity: 34.11%
SK-OV-3 [30]
  Activity: Active
[9]
  inhibition in vivo at 10 mg/kg: 43.1%
Tubulin (Homo sapiens) [31]
  inhibition: Active
Rattus norvegicus
  t1/2: 2.93 h
SK-OV-3 [32]
  Activity: 15.49%
SK-OV-3 [33]
  Activity: 43.5%
Tubulin (Homo sapiens) [34]
  inhibition: Active
SK-OV-3 [35]
  inhibition: Active
Tubulin (Homo sapiens) [36]
  inhibition: Active
SK-OV-3 [37]
  Activity: Active

## CCOc1ccc(-c2nc(NC(=O)C(C)(C)N)sc2-c2cc(OC)c(OC)c(OC)c2)cc1
HepG2 [1]
  IC50: 600 nM
[4]
  IC50: > 2000 nM
[6]
  IC50: 900 nM

## CCOc1ccc(-c2nc(NC(=O)[C@@H](N)Cc3ccccc3)sc2-c2cc(OC)c(OC)c(OC)c2)cc1.Cl
NCI-H460
  Activity: Active
HepG2 [1]
  IC50: 90 nM
[2]
  solubility: 436 µM
[3]
  inhibition in vivo at 20 mg/kg: 46.1%
[4]
  IC50: > 2000 nM
Serum [5]
  Drug degradation: 70.21%
[6]
  IC50: 100 nM
Serum [7]
  Drug degradation: 45.85%

## CCOc1ccc(-c2nc(NC(=O)[C@H]3CCCN3)sc2-c2cc(OC)c(OC)c(OC)c2)cc1
HepG2 [1]
  IC50: 290 nM
[4]
  IC50: > 2000 nM
[6]
  IC50: 510 nM

## CCOc1ccc(-c2nc(NC(=O)[C@H](C)N)sc2-c2cc(OC)c(OC)c(OC)c2)cc1.Cl
NCI-H460
  Activity: Active
HepG2 [1]
  IC50: 430 nM
[2]
  solubility: > 10000 µM
SK-OV-3 [8]
  Activity: Active
[3]
  inhibition in vivo at 20 mg/kg: 56.6%
[4]
  IC50: 210 nM
Serum [5]
  Drug degradation: 99.53%
[6]
  IC50: 460 nM
Serum [7]
  Drug degradation: 93.03%
[9]
  inhibition in vivo at 10 mg/kg: 28.7%

## CCOc1ccc(-c2nc(NC(=O)CN)sc2-c2cc(OC)c(OC)c(OC)c2)cc1.Cl
NCI-H460
  Activity: Active
HepG2 [1]
  IC50: 260 nM
[2]
  solubility: > 10000 µM
SK-OV-3 [8]
  Activity: Active
[3]
  inhibition in vivo at 20 mg/kg: 51.1%
[4]
  IC50: 210 nM
Serum [5]
  Drug degradation: 25.92%
[6]
  IC50: 200 nM
Serum [7]
  Drug degradation: 17.43%
[9]
  inhibition in vivo at 10 mg/kg: 17.6%

## CCOc1ccc(-c2nc(NC(=O)[C@@H](N)CCSC)sc2-c2cc(OC)c(OC)c(OC)c2)cc1
HepG2 [1]
  IC50: 520 nM
[4]
  IC50: > 2000 nM
[6]
  IC50: 380 nM
